Reference: patent publication US10131652B2, “Pyrimidinyloxy benzene derivatives as herbicides” (E. I. DU PONT DE NEMOURS AND COMPANY, priority 2014, dated 2018)
Like-named read-outs stand apart in the source and are kept apart here.

Tests used:
Type in all cases: in vivo
[1] = test system: fall panicum (Panicum dichotomiflorum); assay: Test F pre-/postemergence plant response; conditions: Panicum dichotomiflorum, scale 0 to 100, read-out: Plant response rating, Panicum, Fall
Description: (§1) Seeds of plant species selected from corn (Zea mays), soybean (Glycine max), velvetleaf (Abutilon theophrasti), lambsquarters (Chenopodium album), wild poinsettia (Euphorbia heterophylla), palmer pigweed (Amaranthus palmeri), waterhemp (common waterhemp, Amaranthus rudis), surinam grass (Brachiaria decumbens), large (Lg) crabgrass (Digitaria sanguinalis), Brazilian crabgrass (Digitaria horizontalis), fall panicum (Panicum dichotomiflorum), giant foxtail (Setaria faberii), green foxtail (Setaria viridis), goosegrass (Eleusine indica), johnsongrass (Sorghum halepense), ragweed (common ragweed, Ambrosia elatior), barnyardgrass (Echinochloa crus-galli), sandbur (southern sandbur, Cenchrus echinatus), arrowleaf sida (Sida rhombifolia), Italian ryegrass (Lolium multiflorum), dayflower (Virginia (VA) dayflower, Commelina virginica), field bindweed (Convolvulus arvensis), cocklebur (common cocklebur, Xanthium strumarium), momingglory (Ipomoea coccinea), nightshade (eastern black nightshade, Solanum ptycanthum), kochia (Kochia scoparia), yellow nutsedge (Cyperus esculentus), and hairy beggarticks (Bidens pilosa), were planted into a silt loam soil and treated preemergence with test chemicals formulated in a non-phytotoxic solvent mixture which included a surfactant.
(§2) At the same time, plants from these crop and weed species and also waterhemp_RES1, (ALS & Triazine resistant common waterhemp, Amaranthus rudis), and waterhemp_RES2, (ALS & HPPD resistant common waterhemp, Amaranthus rudis) were treated with postemergence applications of test chemicals formulated in the same manner. Plants ranged in height from 2 to 18 cm for postemergence treatments (1- to 4-leaf stage).
(§3) Treated plants and controls were maintained in a greenhouse for 14 to 21 days, after which time all species were compared to controls and visually evaluated. Plant response ratings, summarized in Table F, are based on a scale of 0 to 100 where 0 is no effect and 100 is complete control. A dash (-) response means no test result.

kochia (Kochia scoparia) = assay: Test F pre-/postemergence plant response; conditions: Bassia scoparia, scale 0 to 100, read-out: Plant response rating, Kochia; for pest or weed control at 16 g/ha: 16 g ai/ha; for pest or weed control at 31 g/ha: 31 g ai/ha; for pest or weed control at 125 g/ha: 125 g ai/ha
Description: as §1, §2, §3

[2] = test system: field bindweed (Convolvulus arvensis); assay: Test F pre-/postemergence plant response; conditions: Convolvulus arvensis, scale 0 to 100, read-out: Plant response rating, Field Bindweed
Description: as §1, §2, §3

[3] = test system: nightshade (eastern black nightshade, Solanum ptycanthum); assay: Test F pre-/postemergence plant response; conditions: Solanum, pre-emergence, scale 0 to 100, read-out: Plant response rating, Nightshade; for pest or weed control at 16 g/ha: 16 g ai/ha Preemergence; for pest or weed control at 31 g/ha: 31 g ai/ha Preemergence; for pest or weed control at 125 g/ha: 125 g ai/ha Preemergence; for pest or weed control at 62 g/ha: Preemergence
Description: as §1, §2, §3

[4] = test system: morningglory (Ipomoea coccinea); assay: Test F pre-/postemergence plant response; conditions: Ipomoea, pre-emergence, scale 0 to 100, read-out: Plant response rating, Morningglory; for pest or weed control at 16 g/ha: 16 g ai/ha Preemergence; for pest or weed control at 31 g/ha: 31 g ai/ha Preemergence; for pest or weed control at 125 g/ha: 125 g ai/ha Preemergence; for pest or weed control at 62 g/ha: Preemergence
Description: as §1, §2, §3

[5] = test system: large (Lg) crabgrass (Digitaria sanguinalis); assay: Test F pre-/postemergence plant response; conditions: Digitaria sanguinalis, pre-emergence, scale 0 to 100, read-out: Plant response rating, Crabgrass, Large; for pest or weed control at 16 g/ha: 16 g ai/ha Preemergence; for pest or weed control at 31 g/ha: 31 g ai/ha Preemergence; for pest or weed control at 62 g/ha: 62 g ai/ha Preemergence; for pest or weed control at 125 g/ha: 125 g ai/ha Preemergence
Description: as §1, §2, §3

[6] = test system: giant foxtail (Setaria faberii); assay: Test F pre-/postemergence plant response; conditions: Setaria faberi, pre-emergence, scale 0 to 100, read-out: Plant response rating, Foxtail, Giant; for pest or weed control at 16 g/ha: 16 g ai/ha Preemergence; for pest or weed control at 31 g/ha: 31 g ai/ha Preemergence; for pest or weed control at 62 g/ha: 62 g ai/ha Preemergence; for pest or weed control at 125 g/ha: 125 g ai/ha Preemergence
Description: as §1, §2, §3

[7] = test system: waterhemp_RES1 (ALS & Triazine resistant common waterhemp, Amaranthus rudis); assay: Test F postemergence plant response; conditions: scale 0 to 100
Outline: (§4)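 Postemergence application to plants 2–18 cm tall (1- to 4-leaf stage), then held in greenhouse 14–21 days. Visual rating against untreated controls on a 0–100 scale (0 no effect, 100 complete control).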

[8] = test system: waterhemp_RES2 (ALS & HPPD resistant common waterhemp, Amaranthus rudis); assay: Test F postemergence plant response; conditions: scale 0 to 100
Outline: as §4

[9] = post-emergence, 16 g ai/ha Postemergence
[10] = post-emergence, 31 g ai/ha Postemergence
[11] = post-emergence, 62 g ai/ha Postemergence
[12] = post-emergence, 125 g ai/ha Postemergence
[13] = pre-emergence, 16 g ai/ha Preemergence
[14] = pre-emergence, 31 g ai/ha Preemergence
[15] = pre-emergence, 125 g ai/ha Preemergence
[16] = post-emergence, 62 g ai/ha, Postemergence
[17] = pre-emergence, 62 g ai/ha Preemergence

Work on `Fc1cccc(Oc2ncc(Cl)cn2)c1-c1cc(C(F)F)no1` [Compound 144, 5-chloro-2-[2-[3-(difluoromethyl)-5-isoxazolyl]-3-fluorophenoxy]pyrimidine] yielded a pest or weed control at 16 g/ha [1, 9] of 25%, a pest or weed control at 31 g/ha [1, 10] of 30% and a pest or weed control at 62 g/ha [1, 11] of 35%. The pest or weed control at 125 g/ha [1, 12] was 60%, the pest or weed control at 16 g/ha [1, 13] was 95% and the pest or weed control at 31 g/ha [1, 14] was 100%. It also gave a pest or weed control at 125 g/ha [1, 15] of 100%, a pest or weed control at 62 g/ha ([1]; pre-emergence, Preemergence) of 100% and a pest or weed control at 16 g/ha (kochia (Kochia scoparia); post-emergence, Postemergence) of 95%. It also gave a pest or weed control at 31 g/ha (kochia (Kochia scoparia); post-emergence, Postemergence) of 95%, a pest or weed control at 62 g/ha (kochia (Kochia scoparia); [16]) of 95% and a pest or weed control at 125 g/ha (kochia (Kochia scoparia); post-emergence, Postemergence) of 95%. It also gave a pest or weed control at 16 g/ha (kochia (Kochia scoparia); pre-emergence, Preemergence) of 98%, a pest or weed control at 31 g/ha (kochia (Kochia scoparia); pre-emergence, Preemergence) of 100% and a pest or weed control at 125 g/ha (kochia (Kochia scoparia); pre-emergence, Preemergence) of 100%. The pest or weed control at 62 g/ha (kochia (Kochia scoparia); pre-emergence, Preemergence) was 100%, the pest or weed control at 16 g/ha [2, 9] was 70% and the pest or weed control at 31 g/ha [2, 10] was 75%. For the same molecule, the pest or weed control at 62 g/ha [2, 11] was 80%, the pest or weed control at 125 g/ha [2, 12] was 90% and the pest or weed control at 16 g/ha [2, 13] was 40%. It also gave a pest or weed control at 31 g/ha [2, 14] of 60%, a pest or weed control at 62 g/ha [2, 17] of 65% and a pest or weed control at 125 g/ha [2, 15] of 70%. It also gave a pest or weed control at 16 g/ha [3] of 98%, a pest or weed control at 31 g/ha [3] of 98% and a pest or weed control at 125 g/ha [3] of 100%. For the same molecule, the pest or weed control at 62 g/ha [3] was 100%, the pest or weed control at 16 g/ha [4] was 0% and the pest or weed control at 31 g/ha [4] was 0%. The pest or weed control at 125 g/ha [4] was 95%, the pest or weed control at 62 g/ha [4] was 65% and the pest or weed control at 16 g/ha [5] was 80%. It also gave a pest or weed control at 31 g/ha [5] of 100%, a pest or weed control at 62 g/ha [5] of 100% and a pest or weed control at 125 g/ha [5] of 100%. For the same molecule, the pest or weed control at 16 g/ha [6] was 15%, the pest or weed control at 31 g/ha [6] was 90% and the pest or weed control at 62 g/ha [6] was 95%. The pest or weed control at 125 g/ha [6] was 100%, the “Plant response rating, Waterhemp_RES1” value ([7]; 16 g ai/ha Postemergence) was 90 and the “Plant response rating, Waterhemp_RES1” value ([7]; 31 g ai/ha Postemergence) was 95. The “Plant response rating, Waterhemp_RES1” value ([7]; 62 g ai/ha Postemergence) was 100, the “Plant response rating, Waterhemp_RES1” value ([7]; 125 g ai/ha Postemergence) was 100 and the “Plant response rating, Waterhemp_RES2” value ([8]; 16 g ai/ha Postemergence) was 98. The “Plant response rating, Waterhemp_RES2” value ([8]; 31 g ai/ha Postemergence) was 100, the “Plant response rating, Waterhemp_RES2” value ([8]; 62 g ai/ha Postemergence) was 100 and the “Plant response rating, Waterhemp_RES2” value ([8]; 125 g ai/ha Postemergence) was 100.
With `Fc1cccc(Oc2ncc(Br)cn2)c1-c1cc(C(F)F)no1` [Compound 145, 5-bromo-2-[2-[3-(difluoromethyl)-5-isoxazolyl]-3-fluorophenoxy]pyrimidine] the pest or weed control at 16 g/ha [1, 9] was 10%, the pest or weed control at 31 g/ha [1, 10] was 10% and the pest or weed control at 62 g/ha [1, 11] was 50%. It also gave a pest or weed control at 125 g/ha [1, 12] of 80%, a pest or weed control at 16 g/ha [1, 13] of 65% and a pest or weed control at 31 g/ha [1, 14] of 80%. The pest or weed control at 125 g/ha [1, 15] was 100%, the pest or weed control at 62 g/ha ([1]; pre-emergence, Preemergence) was 95% and the pest or weed control at 16 g/ha (kochia (Kochia scoparia); post-emergence, Postemergence) was 98%. It also gave a pest or weed control at 31 g/ha (kochia (Kochia scoparia); post-emergence, Postemergence) of 100%, a pest or weed control at 62 g/ha (kochia (Kochia scoparia); [16]) of 95% and a pest or weed control at 125 g/ha (kochia (Kochia scoparia); post-emergence, Postemergence) of 100%. For the same molecule, the pest or weed control at 16 g/ha (kochia (Kochia scoparia); pre-emergence, Preemergence) was 75%, the pest or weed control at 31 g/ha (kochia (Kochia scoparia); pre-emergence, Preemergence) was 98% and the pest or weed control at 125 g/ha (kochia (Kochia scoparia); pre-emergence, Preemergence) was 100%. It also gave a pest or weed control at 62 g/ha (kochia (Kochia scoparia); pre-emergence, Preemergence) of 100%, a pest or weed control at 16 g/ha [2, 9] of 70% and a pest or weed control at 31 g/ha [2, 10] of 75%. It also gave a pest or weed control at 62 g/ha [2, 11] of 80%, a pest or weed control at 125 g/ha [2, 12] of 90% and a pest or weed control at 16 g/ha [2, 13] of 0%. For the same molecule, the pest or weed control at 31 g/ha [2, 14] was 50%, the pest or weed control at 62 g/ha [2, 17] was 65% and the pest or weed control at 125 g/ha [2, 15] was 95%. The pest or weed control at 16 g/ha [3] was 90%, the pest or weed control at 31 g/ha [3] was 80% and the pest or weed control at 125 g/ha [3] was 98%. For the same molecule, the pest or weed control at 62 g/ha [3] was 98%, the pest or weed control at 16 g/ha [4] was 0% and the pest or weed control at 31 g/ha [4] was 10%. For the same molecule, the pest or weed control at 125 g/ha [4] was 35%, the pest or weed control at 62 g/ha [4] was 15% and the pest or weed control at 16 g/ha [5] was 10%. For the same molecule, the pest or weed control at 31 g/ha [5] was 95%, the pest or weed control at 62 g/ha [5] was 98% and the pest or weed control at 125 g/ha [5] was 100%. The pest or weed control at 16 g/ha [6] was 0%, the pest or weed control at 31 g/ha [6] was 65% and the pest or weed control at 62 g/ha [6] was 85%. For the same molecule, the pest or weed control at 125 g/ha [6] was 100%, the “Plant response rating, Waterhemp_RES1” value ([7]; 16 g ai/ha Postemergence) was 95 and the “Plant response rating, Waterhemp_RES1” value ([7]; 31 g ai/ha Postemergence) was 98. The “Plant response rating, Waterhemp_RES1” value ([7]; 62 g ai/ha Postemergence) was 100, the “Plant response rating, Waterhemp_RES1” value ([7]; 125 g ai/ha Postemergence) was 100 and the “Plant response rating, Waterhemp_RES2” value ([8]; 16 g ai/ha Postemergence) was 95. The “Plant response rating, Waterhemp_RES2” value ([8]; 31 g ai/ha Postemergence) was 90, the “Plant response rating, Waterhemp_RES2” value ([8]; 62 g ai/ha Postemergence) was 100 and the “Plant response rating, Waterhemp_RES2” value ([8]; 125 g ai/ha Postemergence) was 100.
